Values of other authors in patent US20060039891A1, “Antineoplastic-dendritic polymer drug delivery system” (priority 2001, published 2006).

What was measured:
B16F10 S.C. tumor = settings: at maximum tolerated dose via I.V. administration
[1] = I.V. administration

Structure (SMILES): N.N.[Cl][Pt][Cl] [cisplatin, cis-diamminedichloro platinate (II)]
- response of B16F10 tumor models (B16F10 S.C. tumor): resistant
- maximum tolerated dose [1]: about 1 mg/kg
